# From ChEMBL document CHEMBL4706551, “Rational design of new multitarget histamine H receptor ligands as potential candidates for treatment of Alzheimer's disease” (Eur J Med Chem, 2020)
# pIC50, pKi: −log10 of the molar value. Activity calls are given as the source filed them.
# Legend:
# [1] = target: Cholinesterase (Equus caballus) (UniProt P81908); experiment: Non-competitive inhibition of equine serum BChE using BTCI as substrate incubated for 5 mins followed by substrate addition and measured after 5 mins by spectrophotometric based Lineweaver-Burk plot analysis; assay type: cell-free; details: time 10.0 min
# Sequence of Cholinesterase (Equus caballus) (P81908 whole entry): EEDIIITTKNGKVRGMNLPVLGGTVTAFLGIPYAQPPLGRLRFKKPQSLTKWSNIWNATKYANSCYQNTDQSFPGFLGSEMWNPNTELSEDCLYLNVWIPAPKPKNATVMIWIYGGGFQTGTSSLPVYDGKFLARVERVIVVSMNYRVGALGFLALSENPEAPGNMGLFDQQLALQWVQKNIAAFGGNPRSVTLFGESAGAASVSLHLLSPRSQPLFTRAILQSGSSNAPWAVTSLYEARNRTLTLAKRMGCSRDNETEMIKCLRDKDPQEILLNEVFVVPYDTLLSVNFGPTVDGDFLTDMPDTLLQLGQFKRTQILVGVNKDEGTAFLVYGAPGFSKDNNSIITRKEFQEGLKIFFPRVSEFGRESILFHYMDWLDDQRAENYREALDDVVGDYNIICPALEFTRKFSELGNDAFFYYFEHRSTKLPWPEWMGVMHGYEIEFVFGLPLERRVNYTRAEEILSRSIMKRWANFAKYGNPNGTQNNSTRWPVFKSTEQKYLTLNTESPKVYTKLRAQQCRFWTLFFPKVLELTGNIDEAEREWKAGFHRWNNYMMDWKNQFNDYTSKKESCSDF
# [2] = target: Cholinesterase (Equus caballus, UniProt P81908)
# Sequence of Cholinesterase (P81908 whole entry): as above
# Description: Inhibition of equine serum BChE using BTCI as substrate incubated for 5 mins followed by substrate addition and measured after 5 mins by spectrophotometric based Ellman's method
# [3] = target: Acetylcholinesterase (Electrophorus electricus, UniProt O42275)
# Sequence of Acetylcholinesterase (Electrophorus electricus, UniProt O42275) (O42275 whole entry): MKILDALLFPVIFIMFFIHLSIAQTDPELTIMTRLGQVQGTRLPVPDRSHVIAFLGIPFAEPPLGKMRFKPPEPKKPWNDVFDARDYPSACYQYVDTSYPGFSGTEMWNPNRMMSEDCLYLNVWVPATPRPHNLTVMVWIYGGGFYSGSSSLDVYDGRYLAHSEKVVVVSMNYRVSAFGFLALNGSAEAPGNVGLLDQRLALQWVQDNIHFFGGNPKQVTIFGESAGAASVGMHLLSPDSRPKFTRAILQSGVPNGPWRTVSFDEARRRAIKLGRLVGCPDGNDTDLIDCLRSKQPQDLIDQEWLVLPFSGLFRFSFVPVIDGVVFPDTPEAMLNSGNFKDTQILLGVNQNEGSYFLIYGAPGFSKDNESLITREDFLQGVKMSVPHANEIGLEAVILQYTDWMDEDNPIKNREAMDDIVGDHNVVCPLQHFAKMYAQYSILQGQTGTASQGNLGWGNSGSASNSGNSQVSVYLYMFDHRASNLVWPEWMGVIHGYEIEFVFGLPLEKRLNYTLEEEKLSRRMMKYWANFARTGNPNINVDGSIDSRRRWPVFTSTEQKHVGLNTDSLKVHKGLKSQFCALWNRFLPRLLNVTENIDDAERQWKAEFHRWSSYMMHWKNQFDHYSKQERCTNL
# Description: Inhibition of Electric eel AChE using ATCI as substrate incubated for 5 mins followed by substrate addition and measured after 5 mins by spectrophotometric based Ellman's method
# [4] = system: Rattus norvegicus; experiment: Analgesic activity in carragenan-induced thermal hyperalgesia model of Wistar (Krf:WI) rat assessed as latency of nociceptive response for radiant heat stimulation at 30 mg/kg treated prior to carrageenan challenge and measured after 1 hr (reference value: 71.4%); assay type: functional
# [5] = system: Rattus norvegicus; experiment: Analgesic activity in carragenan-induced thermal hyperalgesia model of Wistar (Krf:WI) rat assessed as latency of nociceptive response for radiant heat stimulation at 30 mg/kg treated prior to carrageenan challenge and measured after 6 hrs (reference value: 43.2%); assay type: functional
# [6] = system: Rattus norvegicus; experiment: Antiinflammatory activity against Wistar (Krf:WI) rat assessed as reduction in carragenan-induced paw edema at 22.5 mg/kg treated prior to carrageenan challenge and measured after 3 hrs by plethysmometry relative to control; assay type: functional
# [7] = target: T1, MAO-A (Homo sapiens, UniProt P21397); experiment: in vitro; details: probe p-tyramine
# T1 sequence (P21397 whole entry): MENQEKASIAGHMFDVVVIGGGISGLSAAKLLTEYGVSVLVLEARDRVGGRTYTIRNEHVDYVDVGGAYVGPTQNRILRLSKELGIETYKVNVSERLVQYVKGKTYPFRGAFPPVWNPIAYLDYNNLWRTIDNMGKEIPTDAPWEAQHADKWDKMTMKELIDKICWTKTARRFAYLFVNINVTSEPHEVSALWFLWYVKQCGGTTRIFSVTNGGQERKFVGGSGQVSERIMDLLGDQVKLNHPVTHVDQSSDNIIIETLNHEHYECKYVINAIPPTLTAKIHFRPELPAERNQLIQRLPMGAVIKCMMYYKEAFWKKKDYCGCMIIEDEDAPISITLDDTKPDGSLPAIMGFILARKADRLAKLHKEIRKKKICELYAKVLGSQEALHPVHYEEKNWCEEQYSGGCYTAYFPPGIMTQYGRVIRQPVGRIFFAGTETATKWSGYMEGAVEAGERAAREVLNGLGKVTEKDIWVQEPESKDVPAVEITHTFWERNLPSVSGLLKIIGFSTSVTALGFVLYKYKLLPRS
# Description: Inhibition of recombinant human MAO-A expressed in baculovirus infected BTI cells at 1 uM using p-tyramine as substrate by fluorometric assay relative to control
# [8] = system: Mus musculus; experiment: Analgesic activity in formalin-induced nociception CD-1 mouse model assessed as reduction in pain behaviour by measuring less licking of formalin injected hind paw compound administered intraperitoneally prior to formalin induction and measured during late phase (15 to 30 mins after formalin injection) by formalin test; assay type: functional; details: CD-1, ip, time 15-30 min
# [9] = target: Histamine H3 receptor (Homo sapiens, UniProt Q9Y5N1); experiment: biochemical
# Sequence of Histamine H3 receptor (Q9Y5N1 whole entry): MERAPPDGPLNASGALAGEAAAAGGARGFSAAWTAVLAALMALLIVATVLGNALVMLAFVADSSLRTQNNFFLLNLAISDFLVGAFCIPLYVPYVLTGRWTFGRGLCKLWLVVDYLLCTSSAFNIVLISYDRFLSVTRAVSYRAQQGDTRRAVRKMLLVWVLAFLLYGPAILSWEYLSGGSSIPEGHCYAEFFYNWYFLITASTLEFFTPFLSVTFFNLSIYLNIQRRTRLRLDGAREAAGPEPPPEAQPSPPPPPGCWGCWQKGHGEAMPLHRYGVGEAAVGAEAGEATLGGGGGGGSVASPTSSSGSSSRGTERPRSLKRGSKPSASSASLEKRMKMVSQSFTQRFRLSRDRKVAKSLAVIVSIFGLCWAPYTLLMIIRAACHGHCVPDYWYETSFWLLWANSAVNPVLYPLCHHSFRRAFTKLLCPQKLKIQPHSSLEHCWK
# Description: Displacement of [3H]N-alpha-methylhistamine from recombinant human histamine H3 receptor expressed in CHO-K1 cells by microbeta scintillation analysis
# [10] = target: T1, MAO-A; experiment: Inhibition of recombinant human MAO-A expressed in baculovirus infected BTI cells at 10 uM using p-tyramine as substrate by fluorometric assay relative to control; details: probe p-tyramine
# [11] = system: Mus musculus; experiment: (§1) Antiallodynic activity in oxaliplatin-induced peripheral neuropathy pain CD-1 mouse model assessed as inhibition of late-phase tactile allodynia by measuring pain sensitivity threshold at 30 mg/kg administered with compound intraperitoneally at 7 days after oxaliplatin stimulation and measured after 30 mins by von Frey test (reference value: 65.3%); assay type: functional; set-up: scale not given: the % may be the effect or the level left; details: 0.5 h
# [12] = system: Mus musculus; experiment: as §1, with “of early-phase” for “of late-phase”, “at 15” for “at 30”, “at 3 hrs” for “at 7 days”, “value: 61.2 %)” for “value: 65.3%)”; assay type: functional; set-up: scale not given: the % may be the effect or the level left; details: 0.5 h
# [13] = system: Rattus norvegicus; experiment: Antiinflammatory activity against Wistar (Krf:WI) rat assessed as reduction in carragenan-induced paw edema at 30 mg/kg treated prior to carrageenan challenge and measured after 3 hrs by plethysmometry relative to control; assay type: functional
# [14] = system: Rattus norvegicus; experiment: Memory enhancement effect in dizocilpine-induced Wistar (Krf:WI) rat model of amnesia assessed as increase in step through latency administered with compound intraperitoneally and measured after 30 to 45 mins by step-through passive avoidance test; assay type: functional, organism-based; details: dose 1.25-5 mg/kg, time 30-45 min
# [15] = system: Rattus norvegicus; experiment: Antiinflammatory activity against Wistar (Krf:WI) rat assessed as reduction in carragenan-induced paw edema at 22.5 mg/kg treated prior to carrageenan challenge and measured after 24 hrs by plethysmometry relative to control; assay type: functional
# [16] = system: Rattus norvegicus; experiment: Antiinflammatory activity against Wistar (Krf:WI) rat assessed as reduction in carragenan-induced paw edema at 30 mg/kg treated prior to carrageenan challenge and measured after 1 hr by plethysmometry relative to control; assay type: functional
# [17] = system: Rattus norvegicus; experiment: Analgesic activity in Wistar (Krf:WI) rat assessed as inhibition of carrageenan-induced mechanical inflammatory hyperalgesia by measuring paw withdrawl threshold at 22.5 mg/kg treated prior to carrageenan challenge and measured upto 24 hrs (reference value: 88.4 to 90.9 %); assay type: functional; set-up: scale not given: the % may be the effect or the level left; details: time hrs <=24
# [18] = system: Rattus norvegicus; experiment: Antiinflammatory activity against Wistar (Krf:WI) rat assessed as reduction in carragenan-induced paw edema at 22.5 mg/kg treated prior to carrageenan challenge and measured after 6 hrs by plethysmometry relative to control; assay type: functional
# [19] = system: Mus musculus; experiment: as §1, with “early-phase” for “late-phase”, “threshold” for “threshold at 30 mg/kg”, “3 hrs” for “7 days”, “test” for “test (reference value: 65.3%)”; assay type: functional, organism-based; details: dose 15-30 mg/kg
# [20] = system: Mus musculus; experiment: as §1, with “of early-phase” for “of late-phase”, “at 22.5” for “at 30”, “at 3 hrs” for “at 7 days”, “value: 61.2 %)” for “value: 65.3%)”; assay type: functional; set-up: scale not given: the % may be the effect or the level left; details: 0.5 h
# [21] = target: Cholinesterase (Equus caballus) (UniProt P81908); experiment: Non-competitive inhibition of equine serum BChE using BTCI as substrate incubated for 5 mins followed by substrate addition and measured after 5 mins by spectrophotometric based Cornish-Bowden plot analysis; assay type: cell-free; details: time 10.0 min
# [22] = system: Mus musculus; experiment: as §1, with “early-phase” for “late-phase”, “3 hrs” for “7 days”, “61.2 %)” for “65.3%)”; assay type: functional; set-up: scale not given: the % may be the effect or the level left; details: 0.5 h
# [23] = target: Acetylcholinesterase (Homo sapiens, UniProt P22303); experiment: Inhibition of recombinant human AChE using ATCI as substrate incubated for 5 mins followed by substrate addition and measured after 5 mins by spectrophotometric based Ellman's method
# Sequence of Acetylcholinesterase (Homo sapiens, UniProt P22303) (P22303 whole entry): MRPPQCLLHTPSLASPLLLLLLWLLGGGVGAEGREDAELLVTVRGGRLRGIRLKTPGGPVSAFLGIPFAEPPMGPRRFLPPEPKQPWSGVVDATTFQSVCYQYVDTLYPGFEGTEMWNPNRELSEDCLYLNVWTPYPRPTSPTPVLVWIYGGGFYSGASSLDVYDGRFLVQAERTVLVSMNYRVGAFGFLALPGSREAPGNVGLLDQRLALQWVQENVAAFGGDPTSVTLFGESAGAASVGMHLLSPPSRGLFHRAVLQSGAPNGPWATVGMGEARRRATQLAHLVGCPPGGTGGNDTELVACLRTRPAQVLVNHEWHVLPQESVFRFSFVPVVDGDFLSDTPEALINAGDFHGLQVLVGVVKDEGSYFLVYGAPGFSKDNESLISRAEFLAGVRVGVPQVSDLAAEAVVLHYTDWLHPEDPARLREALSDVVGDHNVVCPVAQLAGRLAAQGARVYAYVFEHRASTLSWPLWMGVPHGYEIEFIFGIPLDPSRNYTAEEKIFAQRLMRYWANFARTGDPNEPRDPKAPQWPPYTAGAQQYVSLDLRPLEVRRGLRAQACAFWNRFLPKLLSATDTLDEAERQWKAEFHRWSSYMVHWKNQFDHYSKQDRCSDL
# [24] = system: Rattus norvegicus; experiment: Antiinflammatory activity against Wistar (Krf:WI) rat assessed as reduction in carragenan-induced paw edema at 30 mg/kg treated prior to carrageenan challenge and measured after 6 hrs by plethysmometry relative to control; assay type: functional
# [25] = system: Rattus norvegicus; experiment: Antiinflammatory activity against Wistar (Krf:WI) rat assessed as reduction in carragenan-induced paw edema at 30 mg/kg treated prior to carrageenan challenge and measured after 2 hrs by plethysmometry relative to control; assay type: functional
compound,measurement,setting,value
O=c1c2ccccc2oc2ccc(OCCCCCN3CCCCCC3)cc12,inhibition,[1],Active
same,pIC50,[2],6.06
same,pIC50,[3],6.74
same,Activity,[4],130%
same,Activity,[5],92%
same,inhibition in vivo at 22.5 mg/kg,[6],26.5%
same,inhibition at 1 µM,[7],4%
same,ED50,[8],11.3 mg/kg
same,pKi,[9],6.77
same,inhibition at 10 µM,[10],< 50%
same,Activity,[11],100%
same,Activity,[12],88.5%
same,inhibition in vivo at 30 mg/kg,[13],52.1%
same,Activity,[14],Dose-dependent effect
same,inhibition in vivo at 22.5 mg/kg,[15],22.4%
same,inhibition in vivo at 30 mg/kg,[16],77.9%
same,Activity,[17],94.6%
same,inhibition in vivo at 22.5 mg/kg,[18],19.4%
same,Activity,[19],Dose-dependent effect
same,Activity,[20],90.6%
same,inhibition,[21],Active
same,Activity,[22],95.6%
same,pIC50,[23],6.41
same,inhibition in vivo at 30 mg/kg,[24],44.9%
same,inhibition in vivo at 30 mg/kg,[25],53.3%
